What follows are molecules tested against T1, CDK5-p25 kinase (Homo sapiens, UniProt Q00535) (assay: CDK5-p25 kinase enzymatic assay). Conditions: 50 nM-99 nM; 5 uM ATP, 0.3 nM CDK5-p25; read-out: IC50 potency, CDK5-p25 kinase enzymatic assay, 50 nM-99 nM.
T1 construct: purchased Invitrogen PV4677
Format: biochemical
Method: CDK5-p25 kinase (Invitrogen PV4677) enzymatic activity was measured using electrophoretic separation and fluorescent detection to monitor phosphorylation of a fluorescently labeled histone H1-derived peptide substrate, FL29 (5-FAM-GGGPATPKKAKKL-CONH2, Caliper #760429)
First, 0.25 uL of serially diluted compound in DMSO at 100× concentration was transferred into each well of a 384-well polystyrene assay plate. To this was added 15 uL of a 1.67× enzyme solution (500 pM enzyme, 1 mM DTT (Sigma D9779), 1× reconstitution buffer with protease inhibitor (Caliper #700329 proprietary formulation)), followed by centrifugation for 1 min at 1000 rpm, and incubation for 5-15 min at room temperature to allow binding of compound to enzyme. To initiate the reaction, 10 uL of substrate/ATP mix (245 mM Hepes pH 7.5, 0.003% Brij 35, 0.004% Tween, 12.75 uM ATP, 3.75 uM FL29 peptide) were added to each well, followed by centrifugation at 1000 rpm for 1 min. The reaction was then incubated at room temperature for 30 min. Final assay conditions were: 0.3 nM CDK5-p25, 1.5 uM peptide, 5 uM ATP, 0.6 mM DTT, 1% DMSO, 98 mM HEPES pH 7.5.
After incubation, reactions were quenched by the addition of 45 uL Caliper termination solution (Caliper proprietary formula), followed by centrifugation at 1000 rpm for 1 min. Extent of reaction (percentage conversion of substrate to phosphorylated product) was then measured using the Caliper EZ II reader. Dose-response curves were created by plotting the inhibition of enzyme activity (normalized relative to vehicle treated and no ATP control reactions) as a function of the log of compound concentration. The curve was analyzed using a four parameter logistical fit to calculate IC50 values.

T1 sequence (Q00535 whole entry): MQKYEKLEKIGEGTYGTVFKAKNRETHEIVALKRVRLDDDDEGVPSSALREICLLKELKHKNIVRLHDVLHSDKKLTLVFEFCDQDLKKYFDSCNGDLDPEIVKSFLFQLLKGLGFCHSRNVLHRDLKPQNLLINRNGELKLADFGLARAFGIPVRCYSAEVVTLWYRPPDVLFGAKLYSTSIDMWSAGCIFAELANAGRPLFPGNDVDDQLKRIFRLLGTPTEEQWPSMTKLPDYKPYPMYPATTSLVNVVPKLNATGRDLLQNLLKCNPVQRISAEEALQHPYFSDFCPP
T1 sequence (Q15078 99-307 partner limits assumed): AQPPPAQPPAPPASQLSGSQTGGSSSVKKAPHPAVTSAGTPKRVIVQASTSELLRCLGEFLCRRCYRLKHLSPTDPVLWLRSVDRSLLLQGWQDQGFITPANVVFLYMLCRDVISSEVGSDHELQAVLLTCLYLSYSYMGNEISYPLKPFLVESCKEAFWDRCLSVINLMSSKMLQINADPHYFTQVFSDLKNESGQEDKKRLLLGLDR

IC50	Structure (SMILES)
50 to 99 nM	Nc1ncc(-c2ccc(CC(=O)Nc3ncn4c(C(F)(F)F)csc34)cc2)cn1 [Example 35, 2-[4-(2-aminopyrimidin-5-yl)phenyl]-N-[3-(trifluoromethyl)imidazo[5,1-b][1,3]thiazol-7-yl]acetamide]
50 to 99 nM	CN(C)c1ccc(CC(=O)Nc2ncn3c(C(F)(F)F)csc23)cc1 [Example 31, 2-[4-(dimethylamino)phenyl]-N-[3-(trifluoromethyl)imidazo[5,1-b][1,3]thiazol-7-yl]acetamide]
50 to 99 nM	O=C(Cc1ccc(C(=O)N2CCCC2)cc1)Nc1ncn2c(C(F)(F)F)csc12 [Example 74, 2-[4-(pyrrolidin-1-ylcarbonyl)phenyl]-N-[3-(trifluoromethyl)imidazo[5,1-b][1,3]thiazol-7-yl]acetamide]
50 to 99 nM	NCc1ccc(CC(=O)Nc2ncn3c(C(F)(F)F)csc23)cc1 [Example 27, 2-[4-(aminomethyl)phenyl]-N-[3-(trifluoromethyl)imidazo[5,1-b][1,3]thiazol-7-yl]acetamide]
50 to 99 nM	Cn1cc(-c2ccc(CC(=O)Nc3ncn4c(C(F)(F)F)csc34)cc2)cn1 [Example 20, 2-[4-(1-methyl-1H-pyrazol-4-yl)phenyl]-N-[3-(trifluoromethyl)imidazo[5,1-b][1,3]thiazol-7-yl]acetamide]

Same assay, conditions: 500 nM-3 μM; 5 uM ATP, 0.3 nM CDK5-p25; read-out: IC50 potency, CDK5-p25 kinase enzymatic assay, 500 nM-3 μM

IC50	Structure (SMILES)
500 to 3000 nM	N#Cc1csc2c(NC(=O)Cc3ccc4ccccc4c3)ncn12 [Example 84, N-(3-cyanoimidazo[5,1-b][1,3]thiazol-7-yl)-2-(naphthalen-2-yl)acetamide]
500 to 3000 nM	COc1ccc2cc(C(C)C(=O)Nc3ncn4c(C(F)(F)F)csc34)ccc2c1 (stereo not shown) [Example 18, 2-(6-methoxy-2-naphthyl)-N-[3-(trifluoromethyl)imidazo[5,1-b][1,3]thiazol-7-yl]propanamide]
500 to 3000 nM	O=C(Nc1ncn2c(C(F)(F)F)csc12)C(CO)c1ccc2ccccc2c1 (stereo not shown) [Example 67, 3-hydroxy-2-(2-naphthyl)-N-[3-(trifluoromethyl)imidazo[5,1-b][1,3]thiazol-7-yl]propanamide]

Same assay, conditions: 5 uM ATP, 0.3 nM CDK5-p25; read-out: IC50 potency, CDK5-p25 kinase enzymatic assay, 100 nM-499 nM

IC50	Structure (SMILES)
100 to 499 nM	CS(=O)(=O)c1ccc(CC(=O)Nc2ncn3c(C(F)(F)F)csc23)cc1 [Example 58, 2-[4-(methylsulfonyl)phenyl]-N-[3-(trifluoromethyl)imidazo[5,1-b][1,3]thiazol-7-yl]acetamide]
100 to 499 nM	O=C(Nc1ncn2c(C(F)(F)F)csc12)C(O)c1ccc2ccccc2c1 (stereo not shown) [Example 40, 2-hydroxy-2-(2-naphthyl)-N-[3-(trifluoromethyl)imidazo[5,1-b][1,3]thiazol-7-yl]acetamide]

Same assay, conditions: '<50 nM'; 5 uM ATP, 0.3 nM CDK5-p25; read-out: IC50 potency, CDK5-p25 kinase enzymatic assay, <50 nM

Structure (SMILES)	IC50
O=C(Cc1ccc(-c2cc[nH]n2)cc1)Nc1ncn2c(C(F)(F)F)csc12 [Example 19, 2-[4-(1H-pyrazol-3-yl)phenyl]-N-[3-(trifluoromethyl)imidazo[5,1-b][1,3]thiazol-7-yl]acetamide]	< 50 nM
O=C(Cc1ccc(N2CCOC2=O)cc1)Nc1ncn2c(C(F)(F)F)csc12 [Example 1, 2-[4-(2-Oxo-1,3-oxazolidin-3-yl)phenyl]-N-[3-(trifluoromethyl)imidazo[5,1-b][1,3]thiazol-7-yl]acetamide]	< 50 nM
Cc1nc2cc(CC(=O)Nc3ncn4c(C(F)(F)F)csc34)ccc2o1 [Example 69, 2-(2-methyl-1,3-benzoxazol-5-yl)-N-[3-(trifluoromethyl)imidazo[5,1-b][1,3]thiazol-7-yl]acetamide]	< 50 nM

More lines, now with the values ahead:

IC50	Structure (SMILES)
< 50 nM	O=C(Nc1ncn2c(C(F)(F)F)csc12)C(F)c1ccc2ccccc2c1 (stereo not shown) [Example 33, 2-fluoro-2-(2-naphthyl)-N-[3-(trifluoromethyl)imidazo[5,1-b][1,3]thiazol-7-yl]acetamide]
< 50 nM	O=C(Cc1ccc2ncccc2c1)Nc1ncn2c(C(F)(F)F)csc12 [Example 3, 2-quinolin-6-yl-N-[3-(trifluoromethyl)imidazo[5,1-b][1,3]thiazol-7-yl]acetamide]
< 50 nM	O=C(Cc1ccc2ccncc2c1)Nc1ncn2c(C(F)(F)F)csc12 [Example 4, 2-isoquinolin-7-yl-N-[3-(trifluoromethyl)imidazo[5,1-b][1,3]thiazol-7-yl]acetamide]
